In brackets after ≈: the same amount, converted by molar mass. Like-named read-outs stand apart in the source and are kept apart here.
Key:
[1] = test system: Salmonella typhi; experiment: Inhibition zone, agar plate diffusion; assay type: cell-based; conditions: Salmonella enterica, read-out: Inhibition zone (IZ)
Description: (§1) Antimicrobial activities of the newly formed Schiff bases (6a–d, 7a–d, 8a–d, and 9a–d) and reference drugs were evaluated against three Gram-positive, three Gram-negative, and two fungi strain at Al-Azhar University, Cairo, Egypt. The inhibition zones (IZ, in mm ± standard deviation) and the minimal inhibitory concentration (MIC) (μg/mL) were determined by the conventional paper disk diffusion method.
(§2) In Vitro Antimicrobial Activities
(§3) The antimicrobial activities inhibition zone (IZ, mm±standard deviation) of pyrazole Schiff bases ( 6a-d , 7a-d, 8a-d and 9a-d ) was measurement according to the agar plate diffusion method. Briefly, 100 µl of the […]
(§4) […] of each sample (at 0.5 mg/mL) was added to each well (10 mm diameter holes cut in the agar gel). The plates were incubated for 24 h at 37 °C (for bacteria and yeast) and for 72 h at 27 °C (for filamentous fungi), each test was repeated three times. After incubation, the microorganism's growth was observed. […]
(§5) drugs while Amphotericin B was used as standard antifungal drug. The resulting inhibition zone diameters were measured in millimeters and used as criterion for the antimicrobial activity. Solvent controls (DMSO) were included in every experiment as negative controls. DMSO was used for dissolving […]
(§6) the tested microorganisms. […]
(§7) Bacteria were grown on nutrient agar medium, while fungi and yeast were grown on Sabouraud agar medium. […]

[2] = test system: Candida albicans; experiment: Inhibition zone, agar plate diffusion; assay type: cell-based; conditions: read-out: Inhibition zone (IZ)
Description: as §1, §2, §3, §4, §5, §6, §7

[3] = test system: Fusarium oxysporum; experiment: Inhibition zone, agar plate diffusion; assay type: cell-based; conditions: read-out: Inhibition zone (IZ)
Description: as §1, §2, §3, §4, §5, §6, §7

[4] = test system: Staphylococcus aureus; experiment: Inhibition zone, agar plate diffusion; assay type: cell-based; conditions: read-out: Inhibition zone (IZ)
Description: as §1, §2, §3, §4, §5, §6, §7

[5] = test system: Pseudomonas aeruginosa; experiment: Inhibition zone, agar plate diffusion; assay type: cell-based; conditions: read-out: Inhibition zone (IZ)
Description: as §1, §2, §3, §4, §5, §6

[6] = test system: Escherichia coli; experiment: Inhibition zone, agar plate diffusion; assay type: cell-based; conditions: read-out: Inhibition zone (IZ)
Description: as §1, §2, §3, §4, §5, §6

[7] = test system: Enterococcus faecalis; experiment: Inhibition zone, agar plate diffusion; assay type: cell-based; conditions: read-out: Inhibition zone (IZ)
Description: as §1, §2, §3, §4, §5, §6

[8] = test system: Bacillus subtilis; experiment: Inhibition zone, agar plate diffusion; assay type: cell-based; conditions: read-out: Inhibition zone (IZ)
Description: as §1, §2, §3, §4, §5, §6

[9] = test system: Candida albicans; experiment: MIC/MFC, paper disk diffusion; assay type: cell-based; conditions: Candida albicans, C. albicans
Description: as §1
(§8) In Vitro Antimicrobial Activities […]
(§9) DMSO was used for dissolving […]
(§10) the tested microorganisms.
(§11) The minimum inhibitory concentration (MIC), the minimum bactericidal concentration (MBC, µg/ml) and […]
(§12) and 9b) were determined by the conventional technique termed paper disk diffusion, by applying paper […]
(§13) Bacteria were grown on nutrient agar medium, while fungi and yeast were grown on Sabouraud agar medium. The purified streptomycin was dissolved in […]
(§14) inoculated with test organism. Growth inhibition was examined after 24 hr. from incubation at 37 °C for bacteria and after 72 hr. incubation at 27 °C for fungi and yeast. Each test was repeated three times. MIC was expressed as the lowest concentration inhibiting test organism’s growth. […]

[10] = test system: Fusarium oxysporum; experiment: MIC/MFC, paper disk diffusion; assay type: cell-based; conditions: Fusarium oxysporum, F. oxysporum
Description: as §1, §8, §9, §10, §11, §12, §13, §14

[11] = test system: hepatocellular carcinoma cell line (HepG2); experiment: Antiproliferative activity, MTT assay; assay type: cell-based, human; conditions: Homo sapiens, HepG2; MTT, 48 h; read-out: IC50 HepG-2
Description: (§15) 3-[4, 5-Dimethyl-2-thiazolyl)-2, 5-diphenyl-2 H-tetrazolium bromide (MTT) protocol is based on the cleavage of the tetrazolium salt by mitochondrial dehydrogenases in viable cells. Cells were dispensed in a 96 well sterile microplate (5 x 10^4 cells/well), and incubated at 37 °C with series of different concentrations, in DMSO, of each tested compound or Doxorubicin ® (positive control) for 48 h in a serum free medium prior to the MTT assay. After incubation, media were carefully removed, 40 µL of MTT (2.5 mg/mL) were added to each well and then incubated for an additional 4 h. The purple formazan dye crystals were solubilized by the addition of 200 µL of DMSO. The absorbance was measured at 590 nm using a SpectraMax® Paradigm® Multi-Mode microplate reader. The relative cell viability was expressed as the mean percentage of viable cells compared to the untreated control cells.
(§16) All experiments were conducted in triplicate and repeated in three different days. All the values were represented as mean ± SD. IC 50s were determined by probit analysis using SPSS software program (SPSS

[12] = test system: mammary gland breast cancer cell line (MCF-7); experiment: Antiproliferative activity, MTT assay; assay type: cell-based, human; conditions: Homo sapiens, MCF7; MTT, 48 h; read-out: IC50 MCF-7
Description: as §15, §16

[13] = test system: Salmonella typhi; experiment: MIC/MBC, paper disk diffusion; assay type: cell-based; conditions: Salmonella enterica, TYPHI
Description: as §1, §8, §9, §10, §11, §12, §13, §14

[14] = test system: Pseudomonas aeruginosa; experiment: MIC/MBC, paper disk diffusion; assay type: cell-based; conditions: Pseudomonas aeruginosa, P. aeruginosa
Description: as §1, §8, §9, §10, §11, §12, §13, §14

[15] = test system: Escherichia coli; experiment: MIC/MBC, paper disk diffusion; assay type: cell-based; conditions: Escherichia coli, E. coli
Description: as §1, §8, §9, §10, §11, §12, §13, §14

[16] = test system: Enterococcus faecalis; experiment: MIC/MBC, paper disk diffusion; assay type: cell-based; conditions: E. faecalis
Description: as §1, §8, §9, §10, §11, §12, §13, §14

[17] = test system: Bacillus subtilis; experiment: MIC/MBC, paper disk diffusion; assay type: cell-based; conditions: Bacillus subtilis, B. subtilis; read-out: MBC
Description: as §1, §8, §9, §10, §11, §12, §13, §14

[18] = test system: Staphylococcus aureus; experiment: MIC/MBC, paper disk diffusion; assay type: cell-based; conditions: Staphylococcus aureus, S. aureus
Description: as §1, §8, §9, §10, §11, §12, §13, §14

[19] = St, mm ± standard deviation, sample at 0.5 mg/mL
[20] = Ca, mm ± standard deviation, sample at 0.5 mg/mL
[21] = Fo, mm ± standard deviation, sample at 0.5 mg/mL
[22] = Sa, mm ± standard deviation, sample at 0.5 mg/mL
[23] = Pa, mm ± standard deviation, sample at 0.5 mg/mL
[24] = Ec, mm ± standard deviation, sample at 0.5 mg/mL
[25] = Ef, mm ± standard deviation, sample at 0.5 mg/mL
[26] = Bs, mm ± standard deviation, sample at 0.5 mg/mL

| Structure (SMILES) | zone of inhibition at 500 µg/mL [1, 19] [mm] | zone of inhibition at 500 µg/mL [2] [mm] | zone of inhibition at 500 µg/mL [3] [mm] | zone of inhibition at 500 µg/mL [4] [mm] | zone of inhibition at 500 µg/mL [5] [mm] | zone of inhibition at 500 µg/mL [6] [mm] | zone of inhibition at 500 µg/mL [7] [mm] | zone of inhibition at 500 µg/mL [8] [mm] | other results |
| --- | --- | --- | --- | --- | --- | --- | --- | --- | --- |
| COc1ccc(Nc2n[nH]c(N=Cc3c(C)n(C)n(-c4ccccc4)c3=O)c2C(=O)Nc2ccc(Cl)cc2)cc1 [6d, N-(4-Chlorophenyl)-5-((1,5-dimethyl-3-oxo-2-phenyl-2,3-dihydro-1H-pyrazol-4-yl)methyleneamino)-3-(p-methoxyphenylamino)-1H-pyrazole-4-carboxamide] | < 8 | 13 ± 0.2 | < 8 | < 8 | 12 ± 0.63 | 19 ± 0.33 | 14 ± 0.47 | 13 ± 0.41 | – |
| COc1ccc(Nc2n[nH]c(N=Cc3c(C)nn(-c4ccccc4)c3Cl)c2C(=O)Nc2ccc(Cl)cc2)cc1 [7d, 5-((5-Chloro-3-methyl-1-phenyl-1H-pyrazol-4-yl)methyleneamino)-N-(p-chlorophenyl)-3-(p-methoxyphenylamino)-1H-pyrazole-4-carboxamide] | 17 ± 0.12 | 20 ± 0.5 | 15 ± 0.14 | 24 ± 0.33 | 17 ± 0.74 | 27 ± 0.3 | 22 ± 0.35 | 23 ± 0.22 | – |
| C[C@@H]1[C@H](O)[C@@H](C)/C=C/C=C/C=C/C=C/C=C/C=C/C=C/[C@H](O[C@@H]2O[C@H](C)[C@@H](O)[C@H](N)[C@@H]2O)C[C@@H]2O[C@](O)(C[C@@H](O)C[C@@H](O)[C@H](O)CC[C@@H](O)C[C@@H](O)CC(=O)O[C@H]1C)C[C@H](O)[C@H]2C(=O)O [Amphotericin B, reference compound] | < 8 | – | – | – | – | – | – | – | zone of inhibition at 500 µg/mL [2, 20]: 22 ± 0.2 mm; zone of inhibition at 500 µg/mL [3, 21]: 18 ± 0.32 mm; zone of inhibition at 500 µg/mL [4, 22]: < 8 mm; zone of inhibition at 500 µg/mL [5, 23]: < 8 mm; zone of inhibition at 500 µg/mL [6, 24]: < 8 mm; zone of inhibition at 500 µg/mL [7, 25]: < 8 mm; zone of inhibition at 500 µg/mL [8, 26]: < 8 mm; MFC ([9]; read-out: MFC): 34.6 mg/L (≈ 37.5 µM); MIC ([9]; read-out: MIC): 15.6 mg/L (≈ 16.9 µM); MFC ([10]; read-out: MFC): 65.6 mg/L (≈ 71 µM); MIC ([10]; read-out: MIC): 31.2 mg/L (≈ 33.8 µM) |
| COc1ccc(Nc2n[nH]c(N=Cc3ccc(N4CCCCC4)cc3)c2C(=O)Nc2ccc(C)cc2)cc1 [8c, 3-(p-Methoxyphenylamino)-5-(4-(piperidin-1-yl)benzylideneamino)-N-p-tolyl-1H-pyrazole-4-carboxamide] | 14 ± 0.52 | 19 ± 0.65 | < 8 | 17 ± 0.78 | < 8 | 18 ± 0.3 | 25 ± 0.14 | 22 ± 0.41 | – |
| COc1cccc2c1C(=O)c1c(O)c3c(c(O)c1C2=O)C[C@@](O)(C(=O)CO)C[C@@H]3O[C@H]1C[C@H](N)[C@H](O)[C@H](C)O1 [Doxorubicin, reference compound] | – | – | – | – | – | – | – | – | IC50 [11]: 3.92 ± 0.5 µM; IC50 [12]: 1.94 ± 0.8 µM |
| CN(C)[C@@H]1C(O)=C(C(N)=O)C(=O)[C@@]2(O)C(O)=C3C(=O)c4c(O)cccc4[C@@](C)(O)[C@H]3C[C@@H]12 [Tetracycline, reference compound] | – | – | – | – | – | – | – | – | MBC [13]: 43.8 mg/L (≈ 98.4 µM); MBC ([14]; read-out: MBC): 87.5 mg/L (≈ 197 µM); MIC ([14]; read-out: MIC): 62.5 mg/L (≈ 141 µM); MBC ([15]; read-out: MBC): 18.7 mg/L (≈ 42.2 µM); MIC ([15]; read-out: MIC): 15.6 mg/L (≈ 35.1 µM); MBC ([16]; read-out: MBC): 93.8 mg/L (≈ 211 µM); MIC ([16]; read-out: MIC): 62.5 mg/L (≈ 141 µM); MBC [17]: 40.6 mg/L (≈ 91.4 µM); MBC ([18]; read-out: MBC): 87.5 mg/L (≈ 197 µM); MIC ([18]; read-out: MIC): 62.5 mg/L (≈ 141 µM); zone of inhibition at 500 µg/mL [1]: 21 ± 0.55 mm; zone of inhibition at 500 µg/mL [2, 20]: < 8 mm; zone of inhibition at 500 µg/mL [3, 21]: < 8 mm; zone of inhibition at 500 µg/mL [4, 22]: 25 ± 0.11 mm; zone of inhibition at 500 µg/mL [5, 23]: 20 ± 0.5 mm; zone of inhibition at 500 µg/mL [6, 24]: 23 ± 0.2 mm; zone of inhibition at 500 µg/mL [7, 25]: 22 ± 0.25 mm; zone of inhibition at 500 µg/mL [8, 26]: 25 ± 0.22 mm |
| COc1ccc(Nc2n[nH]c(N=Cc3c(C)n(C)n(-c4ccccc4)c3=O)c2C(=O)Nc2ccc(C)cc2)cc1 [6c, 5-((1,5-Dimethyl-3-oxo-2-phenyl-2,3-dihydro-1H-pyrazol-4-yl)methyleneamino)-3-(p-methoxyphenylamino)-N-p-tolyl-1H-pyrazole-4-carboxamide] | 15 ± 0.36 | 17 ± 0.21 | 9 ± 0.35 | 23 ± 0.29 | < 8 | 22 ± 0.43 | 21 ± 0.54 | 20 ± 0.11 | – |
| COc1ccc(Nc2n[nH]c(N=Cc3ccc(N4CCCCC4)cc3)c2C(=O)Nc2ccccc2)cc1 [8b, 3-(p-Methoxyphenylamino)-N-phenyl-5-(4-(piperidin-1-yl)benzylideneamino)-1H-pyrazole-4-carboxamide] | 15 ± 0.2 | 12 ± 0.65 | < 8 | < 8 | < 8 | 14 ± 0.21 | 12 ± 0.74 | 15 ± 0.45 | – |

Source: publication PMC7321065, “Discovery of New Schiff Bases Tethered Pyrazole Moiety: Design, Synthesis, Biological Evaluation, and Molecular Docking Study as Dual Targeting DHFR/DNA Gyrase Inhibitors with Immunomodulatory Activity” (Molecules, 2020)
